Like-named read-outs stand apart in the source and are kept apart here.
Tests used:
PPB = type: in vitro ADME; details: plasma
[1] = Pharmacokinetics of intraperitoneal or intravenous injection in CD1 mice; type: in vivo; details: for Conc. (ng/mL) Mouse 2 / Conc. (ng/mL) Mouse 1 / Conc. (ng/mL) Mouse 3 / concentration at 0.25 h / concentration at 0.5 h / concentration at 1 h / concentration at 2 h / concentration at 4 h / concentration at 8 h / concentration at 24 h / concentration at 0.033 h / concentration at 0.083 h: CD1 mice plasma; for concentration at 0.25 h / concentration at 0.5 h / concentration at 1 h / concentration at 2 h / concentration at 4 h / concentration at 8 h / concentration at 24 h / AUC(0-t) / half-life / concentration at 0.033 h / concentration at 0.083 h: male, CD1, mouse, plasma
Procedure: The pharmacokinetics of exemplary compounds 103, 107, 100, 101, and 102 was examined for intraperitoneal and intravenous administration. The desired serial concentrations of working solutions were achieved by diluting stock solution (1 mg/mL in DMSO) of analyte with methanol. In particular, 20 μL of working solutions (1, 2, 5, 10, 50, 100, 500, 1000, 2000 ng/mL) were added to 20 μL of the blank CD1 mice plasma to achieve calibration standards of 1-2000 ng/mL (1, 2, 5, 10, 50, 100, 500, 1000, 2000 ng/mL) in a total volume of 40 μL. Dose of IV and IP were diluted by 1000 fold and 10000 with methanol, 20 μL of the diluted dose solutions were added to 20 μL of the blank CD1 mice plasma to achieve dose samples. Next, 40 μL standards and 40 μL dose samples were added to 20 μL of IS (100 ng/mL) and 200 μL of acetonitrile for precipitating protein respectively. Then the samples were vortexed for 30 seconds. After centrifugation at 4 degree Celsius, 4000 rpm for 15 minutes, the supernatant was diluted 3 times with water. 10 μL of the diluted supernatant was injected into the LC/MS/MS system for quantitative analysis.
Exemplary compounds 103, 107, 100, 101, and 102 were administered intravenously (5 second injection of 10% HP-b-CD and 40 mM sodium acetate and 40 mM NaCl in water, pH4.5) or intraperitoneally (5% EtOH and 5% Solutol HS15 in D5W(ESD-2)) to 6-8 week old male CD1 mice (3 mice per treatment group for a total of 12 mice) at the time points indicated below in Table 7. The mice had free access to food and water.
Dorsal metatarsal vein samples (30 μL), except that the final sample was acquired via a heart puncture, were taken from the mice at the same the administration time points as shown in Table 7.

[2] = ip, 10 mg/kg, IP 10 mg/kg, read-out: Conc. (ng/mL) Mouse 1
[3] = ip, 10 mg/kg, IP 10 mg/kg, read-out: Conc. (ng/mL) Mouse 2
[4] = ip, 10 mg/kg, IP 10 mg/kg, read-out: Conc. (ng/mL) Mouse 3
[5] = ip, 10 mg/kg, IP 10 mg/kg, read-out: Mean
[6] = iv, 1 mg/kg, IV 1.0 mg/kg, read-out: Conc. (ng/mL) Mouse 1
[7] = iv, 1 mg/kg, IV 1.0 mg/kg, read-out: Conc. (ng/mL) Mouse 2
[8] = iv, 1 mg/kg, IV 1.0 mg/kg, read-out: Conc. (ng/mL) Mouse 3
[9] = iv, 1 mg/kg, IV 1.0 mg/kg, read-out: Mean

Cc1ncsc1-c1ccc(CNC(=O)[C@@H]2C[C@@H](O)CN2C(=O)[C@@H](NC(=O)COCCOc2ccc(Nc3ncc(C(F)(F)F)c(NCc4cccc(N(C)S(C)(=O)=O)c4)n3)cc2)C(C)(C)C)cc1 [Compound 100, (2S,4R)-1-((S)-3,3-dimethyl-2-(2-(2-(4-((4-((3-(N-methylmethylsulfonamido)benzyl)amino)-5-(trifluoromethyl)pyrimidin-2-yl)amino)phenoxy)ethoxy)acetamido)butanoyl)-4-hydroxy-N-(4-(4-methylthiazol-5-yl)benzyl)pyrrolidine-2-carboxamide]
fraction unbound (PPB): 0.008 | Conc. (ng/mL) Mouse 2 ([1]; IP 10 mg/kg, 24 h): BLOQ | Conc. (ng/mL) Mouse 1 ([1]; IV 1.0 mg/kg, 8 h): BLOQ | Conc. (ng/mL) Mouse 2 ([1]; IV 1.0 mg/kg, 8 h): BLOQ | Conc. (ng/mL) Mouse 3 ([1]; IV 1.0 mg/kg, 8 h): BLOQ | Conc. (ng/mL) Mouse 1 ([1]; IV 1.0 mg/kg, 24 h): BLOQ | Conc. (ng/mL) Mouse 2 ([1]; IV 1.0 mg/kg, 24 h): BLOQ | Conc. (ng/mL) Mouse 3 ([1]; IV 1.0 mg/kg, 24 h): BLOQ | concentration at 0.25 h [1, 2]: 252 ng/mL | concentration at 0.25 h [1, 3]: 402 ng/mL | concentration at 0.25 h [1, 4]: 374 ng/mL | concentration at 0.25 h [1, 5]: 343 ng/mL | concentration at 0.5 h [1, 2]: 362 ng/mL | concentration at 0.5 h [1, 3]: 467 ng/mL | concentration at 0.5 h [1, 4]: 373 ng/mL | concentration at 0.5 h [1, 5]: 401 ng/mL | concentration at 1 h [1, 2]: 648 ng/mL | concentration at 1 h [1, 3]: 1550 ng/mL | concentration at 1 h [1, 4]: 2480 ng/mL | concentration at 1 h [1, 5]: 1560 ng/mL | concentration at 2 h [1, 2]: 764 ng/mL | concentration at 2 h [1, 3]: 1750 ng/mL | concentration at 2 h [1, 4]: 1610 ng/mL | concentration at 2 h [1, 5]: 1380 ng/mL | concentration at 4 h [1, 2]: 362 ng/mL | concentration at 4 h [1, 3]: 625 ng/mL | concentration at 4 h [1, 4]: 510 ng/mL | concentration at 4 h [1, 5]: 499 ng/mL | concentration at 8 h ([1]; ip, 10 mg/kg, IP 10 mg/kg, 8 h, read-out: Conc. (ng/mL) Mouse 1): 95.4 ng/mL | concentration at 8 h ([1]; ip, 10 mg/kg, IP 10 mg/kg, 8 h, read-out: Conc. (ng/mL) Mouse 2): 111 ng/mL | concentration at 8 h ([1]; ip, 10 mg/kg, IP 10 mg/kg, 8 h, read-out: Conc. (ng/mL) Mouse 3): 151 ng/mL | concentration at 8 h ([1]; ip, 10 mg/kg, IP 10 mg/kg, 8 h, read-out: Mean): 119 ng/mL | concentration at 24 h ([1]; ip, 10 mg/kg, IP 10 mg/kg, 24 h, read-out: Conc. (ng/mL) Mouse 1): 1.35 ng/mL | concentration at 24 h ([1]; ip, 10 mg/kg, IP 10 mg/kg, 24 h, read-out: Conc. (ng/mL) Mouse 3): 1.56 ng/mL | concentration at 24 h ([1]; ip, 10 mg/kg, IP 10 mg/kg, 24 h, read-out: Mean): 1.46 ng/mL | AUC(0-t) ([1]; ip, 10 mg/kg, read-out: AUClast (h * ng/mL) IP): 5870 ng·h/mL | half-life ([1]; ip, 10 mg/kg, read-out: T ½ (h) IP (converted)): 2.15 h | concentration at 0.033 h [1, 6]: 1320 ng/mL | concentration at 0.033 h [1, 7]: 1390 ng/mL | concentration at 0.033 h [1, 8]: 1150 ng/mL | concentration at 0.033 h [1, 9]: 1290 ng/mL | concentration at 0.083 h [1, 6]: 233 ng/mL | concentration at 0.083 h [1, 7]: 313 ng/mL | concentration at 0.083 h [1, 8]: 205 ng/mL | concentration at 0.083 h [1, 9]: 250 ng/mL | concentration at 0.25 h [1, 6]: 34.7 ng/mL | concentration at 0.25 h [1, 7]: 48.2 ng/mL | concentration at 0.25 h [1, 8]: 36.4 ng/mL | concentration at 0.25 h [1, 9]: 39.8 ng/mL | concentration at 0.5 h [1, 6]: 17.4 ng/mL | concentration at 0.5 h [1, 7]: 27.1 ng/mL | concentration at 0.5 h [1, 8]: 18 ng/mL | concentration at 0.5 h [1, 9]: 20.8 ng/mL | concentration at 1 h [1, 6]: 6.22 ng/mL | concentration at 1 h [1, 7]: 9.77 ng/mL | concentration at 1 h [1, 8]: 8.79 ng/mL | concentration at 1 h [1, 9]: 8.26 ng/mL | concentration at 2 h [1, 6]: 3.27 ng/mL | concentration at 2 h [1, 7]: 5.86 ng/mL | concentration at 2 h [1, 8]: 3.98 ng/mL | concentration at 2 h [1, 9]: 4.37 ng/mL | concentration at 4 h [1, 6]: 1.84 ng/mL | concentration at 4 h [1, 7]: 4.11 ng/mL | concentration at 4 h [1, 8]: 2.13 ng/mL | concentration at 4 h [1, 9]: 2.69 ng/mL | AUC(0-t) ([1]; iv, 1 mg/kg, read-out: AUClast (h * ng/mL) IV): 175 ng·h/mL | half-life ([1]; iv, 1 mg/kg, read-out: T ½ (h) IV (converted)): 1.95 h

From patent US20200038513A1, “MODULATORS OF FAK PROTEOLYSIS AND ASSOCIATED METHODS OF USE” (ARVINAS OPERATIONS, INC., priority 2018, published 2020)
